# Experimental data reported in US11903907B2, “Soluble honokiol derivatives” (TAIPEI MEDICAL UNIVERSITY, priority 2017, dated 2024).
# Key:
# [1] = system: mouse tail transection model (hemostasis); assay: Bleeding time, mouse tail transection model; type: in vivo, mice; conditions: 0.5 and 1 mg/kg i.v.; measured 10 min after administration
# Protocol: (§1) Coronal sections of 2,3,5-triphenyltetrazolium chloride (TTC)-stained brains were taken after middle cerebral artery occlusion (MCAO) in the vehicle group treated with an isovolumetric solvent (normal saline, intravenous [i.v.]), and groups treated with HP-TMU (0.25, 0.5 and 1 mg/kg, i.v.) or honokiol (0.129, 0.258 and 0.516 mg/kg, i.v.; the doses of honokiol were adjusted by the ratio of the molecular weight of honokiol to HP-TMU (266.33/514.22)) after 30 min-embolic occlusion. The densitometric analyses for the measurement of infarct volume and brain edema were performed after treatment with HP-TMU or honokiol against embolic stroke in mice. Bleeding time was measured 10 min after the i.v. administration of normal saline (isovolumetric control) or HP-TMU (0.5 and 1 mg/kg, i.v.) for 30 min.
# (§2) In addition, MCAO-induced cerebral edema in the ischemic hemisphere was reduced by the treatment of 1 mg/kg HP-TMU (FIG. 1C). […] On the other hand, increased risk of hemorrhage is a major side effect of anti-stroke treatments. To evaluate HP-TMU in this aspect, we used the mouse tail transection model as an index of hemostasis.
# [2] = system: middle cerebral artery occlusion (MCAO); assay: Neurobehavioral functions after MCAO: neurological severity scoring and rotarod test; type: in vivo, mice; conditions: 0.5 and 1 mg/kg i.v., 24 and 48 h after MCAO, P<0.05
# Protocol: Mice were subjected to middle cerebral artery occlusion (MCAO) surgery for 30 min, and then treated with the isovolumetric vehicle control (normal saline, intravenous [i.v.]) or HP-TMU (0.25, 0.5 and 1 mg/kg, i.v.) or honokiol (0.129, 0.258 and 0.516 mg/kg, i.v.). Assays of neurobehavioral functions include neurological severity scoring and the rotarod test. Evaluations were performed before and 24 and 48 h after surgery.
# [3] = system: middle cerebral artery occlusion (MCAO) embolic stroke; assay: MCAO embolic stroke in mice: infarct volume and brain edema from TTC-stained brain sections; type: in vivo
# Protocol: as §1, §2
# [4] = Plasma concentration of honokiol and pharmacokinetics after intravenous injection in rats; conditions: rat plasma, i.v.
# Protocol: Mean plasma concentrations of honokiol vs. time profile in five rats were measured after intravenous injection of HP-TMU or honokiol.
# The plasma concentrations of honokiol at different points are expressed as mean±SD, and the mean concentration-time curve is shown in FIG. 4A.
# [5] = system: middle cerebral artery occlusion (MCAO); assay: Long-term recovery after MCAO by neurological severity scoring, comparison with edaravone; type: in vivo, mice; conditions: 1 mg/kg i.v.; at 1, 2, and 7 days after surgery
# Protocol: Mice were subjected to middle cerebral artery occlusion (MCAO) surgery for 30 min, and then treated with the isovolumetric vehicle control (normal saline, intravenous [i.v.]) or HP-TMU (1 mg/kg, i.v.) or edaravone (3 mg/kg, i.v.). The therapeutic effects of HP-TMU on long-term recovery were evaluated by neurological severity scoring before or 1, 2, 7, 14, and 28 days after surgery.
smiles,measurement,setting,value
"C=CCc1ccc(OP(=O)(O)O)c(-c2ccc(OP(=O)([O-])[O-])c(CC=C)c2)c1.[Na+].[Na+] [HP-TMU, sodium 3′,5-diallyl-[1,1′-biphenyl]-2,4′-diyl bis(phosphate)]",bleeding time,[1],did not alter the bleeding time substantially
same,"neurobehavioral (neurological) deficit scores, 18-point scale",[2],significantly ameliorated these increased scores
same,decrease of rotarod duration,[2]; vs vehicle control,significant reversed
same,MCAO-induced cerebral edema in the ischemic hemisphere,[3]; 1 mg/kg i.v.,reduced
same,infarct volume,"[3]; 0.5 and 1 mg/kg i.v. after 30 min-embolic occlusion, compared with solvent control group, P<0.05",significantly reduced the infarct volume
same,neuroprotective effects compared with honokiol,"[3]; HP-TMU 0.25, 0.5, 1 mg/kg i.v. vs honokiol 0.129, 0.258, 0.516 mg/kg i.v.",more potent neuroprotective effects than honokiol
same,half-life compared to honokiol,[4],prolonged half-life compared to honokiol
same,long-term recovery of neurological deficit,[5],significantly improved
